In publication PMC11233932, “Identification of an alternative ligand‐binding pocket in peroxisome proliferator‐activated receptor gamma and its correlated selective agonist for promoting beige adipocyte differentiation” (MedComm, 2024) one finds Kd data, which are given here for 1 compound.

Molecules are shown by their SMILES.

In the experiment the target is T1, peroxisome proliferator-activated receptor gamma (PPARγ) (Mus musculus, UniProt P37238).
T1 construct: gene Pparg; LBD, GFP fusion overexpressed in 293T cells
T1 sequence (P37238 238-505 limits assumed): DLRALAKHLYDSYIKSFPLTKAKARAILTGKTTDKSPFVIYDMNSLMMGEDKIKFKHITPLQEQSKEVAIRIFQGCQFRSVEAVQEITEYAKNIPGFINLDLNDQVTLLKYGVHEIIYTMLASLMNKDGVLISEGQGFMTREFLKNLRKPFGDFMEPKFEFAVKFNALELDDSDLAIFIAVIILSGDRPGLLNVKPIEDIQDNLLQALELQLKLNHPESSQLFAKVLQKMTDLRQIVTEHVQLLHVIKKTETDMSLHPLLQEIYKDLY
As to the kind of experiment: microscale thermophoresis with GFP-PPARγ LBD in cell lysate; supported by luciferase reporter (partial agonist). Type of experiment: binding.

As a reminder, the Kd is the constant that tells how readily two partners part at equilibrium. On to `C[C@H]1O[C@@H](O[C@H]2CC[C@@]3(C)[C@@H](CC[C@]4(C)[C@@H]3C=C[C@]35OC[C@@]6(CCC(C)(C)C[C@H]63)[C@@H](O)C[C@]54C)[C@]2(C)CO)[C@H](O)[C@@H](O[C@@H]2O[C@H](CO)[C@@H](O)[C@H](O)[C@H]2O)[C@H]1O` [NJT-2, saikosaponin A], for which the Kd stood at 5.07 µM.
